Where “and” joins values, the source holds several entries; their conditions need not be identical. Equal entries are not always repeated.
Columns and labels:
A431/CCKBR cells [1] = assay: Kinase inhibitor library screen: [177Lu]Lu-PP-F11N cell uptake; format: cell-based, human; settings: ratio treatment/control; 10 μM inhibitor
A431/CCKBR cells [2] = assay: CellTiter 96 AQueous (MTS) proliferation assay; format: cell-based, human; settings: for Proliferation [A570]: 10 μM kinase inhibitor, MTS absorbance at 570 nm, reference 650 nm, mean of triplicate; for Proliferation (ratio): ratio treatment/control, 10 μM inhibitor
A431/CCKBR cells [3] = assay: Total protein concentration of cell lysates; format: cell-based, human; settings: for total protein level compared to control: 100 nM RAD001 or 10 mM metformin, 20 h
From the text: (§1) […]. […] […].

[4] = test system: mTORC1-regulated phosphorylation of the ribosomal protein S6 at Ser235/236; assay: WB analysis of phospho-S6; format: cell-based, human; settings: for phosphorylation of S6 at Ser235/236 (WB): A431/CCKBR cells, 100 nM RAD001 or 10 mM metformin
Experimental: (§2) Antibodies against phospho-S6 at S235/S236 (D57.2.2F), ERK1/2 (9102), phospho-ERK1/2 (T202/Y204), GAPDH (14C10) and HA-Tag (C29F4) were obtained from Cell Signaling Technology, whereas the anti-CCKBR (ab77077) was from Abcam. Cells were homogenized in lysis buffer (50 mM Tris-HCl pH 7.5, 150 mM NaCl, 1% Triton X, 0.1% SDS supplemented with 1 mM sodium orthovanadate, 1 mM NaF and protease inhibitor cocktail (Roche)). 50 μg of total protein lysates were separated by SDS-PAGE and transferred to PVDF membranes (Millipore) by electroblotting. Membranes were blocked with 5% skim milk in TBST (0.1% Tween 20) for 1 h, and incubated with 2% BSA in TBST overnight with the primary antibody followed by 2 h incubation with HRP-conjugated secondary antibody. Signals were produced by using a chemiluminescence reagent (ECL) and acquired by ImageQuant RT ECL Imager (GE Healthcare). Prior to CCKBR detection by WB, protein lysates were subjected to deglycosylation. Briefly, 18 μL of total protein lysates (50 µg) were mixed with 2 μL of 10× denaturing buffer (5% SDS, 0.4 M DTT) and incubated for 10 min at RT. Next, 4 μL of 10× Glycobuffer (0.5 M sodium phosphate, pH 7.5), 4 μL of 10% Tween-20 and 10 μL of water were added. Finally, 2 μL of PNGase F (Sigma) was added and the reaction was carried out for 16 h at 37°C.

[5] = test system: A431/CCKBR-tumor bearing nude mice; assay: Tumor volume, mouse weight and toxicity during treatment; format: in vivo
A431/CCKBR tumors = assay: HE staining and immunohistochemistry of tumor sections; format: in vivo, mouse; settings: for mitotic index / necrosis (necrotic area) / Ki67 positive cells: 5 days treatment, mean ± SD; for tumor vascularization: HE and CD34, five-day treatment; for necrosis (necrotic area): HE stain; for Ki67 positive cells: IHC
Experimental: Formalin-fixed, paraffin tumor sections were deparaffinized, rehydrated and pretreated in 10 mM citrate buffer, pH 6.0, at 98 °C for 60 minutes, followed by incubation with 4% fat-free milk in PBS for 90 minutes. For avidin/biotin blocker treatment (Invitrogen) and detection, the ABC method was used. For monoclonal antibody against Ki67 (SP6, Thermo Scientific) and CD34 (cloneQBend/10; Dako) signals were recorded using an automated instrument reagent system (Discovery XT, Ventana Medical System Inc.). Images of hematoxylin-counterstained sections were captured (Nikon, YTHM) and analyzed using ImageAccess Enterprise7 and ImageJ software. Tumor necrotic areas and vascularization were analyzed in 10 (RAD001 and PBS) and 8 (metformin) images, whereas Ki67 and mitotic index in 15 (RAD001 and PBS) and 12 (metformin) images.

A431/CCKBR cells [6] = settings: 100 nM RAD001 or 10 mM metformin; for internalization ratio [treatment/control]: 20 h; for [177Lu]Lu-PP-F11N internalization in treated cells: 20 h treatment, 0.3 pmol radioligand 1 h, triplicate
Experimental: Radioactive medium (and PBS wash) was collected and the cells were washed 2× with glycine buffer (pH=2) for 5 min at RT followed by a dissolving step in 1 M NaOH for 15 min at 37°C. All 3 fractions (medium/PBS; glycine; dissolved cells) were measured on Cobra II Auto-Gamma counter (Packard). For the cell uptake analysis, the PBS-washed cells were directly dissolved in 1M NaOH, or combined glycine-wash and 1M NaOH dissolved cells, were measured on the Gamma counter. […] Protein concentration of cell lysates was measured by using NanoPhotometer® UV-Vis P-Class (Implen).

[7] = test system: A431/CCKBR-tumor bearing nude mice; settings: for influence on [177Lu]Lu-PP-F11N tumor uptake: three doses of metformin or one RAD001 dose
AR42J cells [8] = format: cell-based, rat
From the text: as §1

A431 cells = assay: Total protein concentration of cell lysates; format: cell-based, human; settings: 100 nM RAD001
From the text: as §1

AR42J cells [9] = assay: Total protein concentration of cell lysates; format: cell-based, rat; settings: 100 nM RAD001
From the text: as §1

CCKBR = assay: WB analysis of CCKBR protein level in deglycosylated lysates; format: cell-based, human; settings: 50 or 100 nM RAD001, 20 h; A431/CCKBR; CCKBR/GAPDH
Experimental: as §2

[10] = test system: β-arrestin-1 recruitment to CCKBR; assay: Split luciferase arrestin recruitment assay; format: cell-based, human; settings: RAD001 20 h, then 1 µM PP-F11N
[11] = test system: β-arrestin-2 recruitment to CCKBR; assay: Split luciferase arrestin recruitment assay; format: cell-based, human; settings: RAD001 20 h, then 1 µM PP-F11N
A431/CCKBR cells [12] = assay: Hoechst fluorescence cell number control; format: cell-based, human; settings: RAD001 pretreatment 20 h
[13] = clinical study; cited from earlier work
From the text: Overexpression of G-protein coupled receptors (GPCRs) that selectively bind their peptide ligands allowed the development of the peptide receptor radionuclide therapy (PRRT) for human cancers. One of the most important properties of PRRT is a high uptake ratio of tumor-to-healthy-tissue in terms of radiolabeled ligands. Consequently, the molecular strategies which increase uptake of radiopharmaceuticals selectively in cancer tissue while sparing healthy organs from cytotoxic side effects have huge potential to improve PRRT efficacy. Activated GPCRs by agonistic ligand-based radiotherapeuti ...

in vivo = settings: female, CD-1 nude, mouse, iv, 3 pmol, total radioactivity, Uptake [% i.A./g], PBS group, control PBS-treated mice, 3 pmol i.v., 4 h post injection, mean

Structure (SMILES) | Uptake (ratio) (A431/CCKBR cells [1]) | Proliferation [A570] (A431/CCKBR cells [2]) | Proliferation (ratio) (A431/CCKBR cells [2]) | total protein level compared to control (A431/CCKBR cells [3]) [%] | phosphorylation of S6 at Ser235/236 (WB) [4] | mouse weight ([5]; 3 daily doses) | tumor volume ([5]; 3 daily doses) | mouse weight ([5]; 5 days daily treatment) | tumor volume ([5]; 5 days daily treatment) | mitotic index (A431/CCKBR tumors) | tumor vascularization (A431/CCKBR tumors) | necrosis (necrotic area) (A431/CCKBR tumors) | Ki67 positive cells (A431/CCKBR tumors) | internalization ratio [treatment/control] (A431/CCKBR cells [6]) | [177Lu]Lu-PP-F11N internalization in treated cells (A431/CCKBR cells [6]) [%] | influence on [177Lu]Lu-PP-F11N tumor uptake [7] | further results
O=C(O)c1ccc2nc(-c3ccccc3)c(-c3ccccc3)nc2c1 [BML-257] | 1.26 | 0.95 | 0.98 |  |  |  |  |  |  |  |  |  |  |  |  |  | 
CN(C)C(=N)N=C(N)N [Metformin, metformin] |  |  |  | 80 | lack of mTORC1-regulated phosphorylation | no effects | no effects | no effects | no effects | did not cause a significant change | No significant difference | did not show a significant difference | did not cause a significant change | 1.3 | 21.1 | only moderately and did not reach statistical significance | 
CO[C@H]1C[C@@H]2CC[C@@H](C)[C@@](O)(O2)C(=O)C(=O)N2CCCC[C@H]2C(=O)O[C@H]([C@H](C)C[C@@H]2CC[C@@H](OCCO)[C@H](OC)C2)CC(=O)[C@H](C)/C=C(\C)[C@@H](O)[C@@H](OC)C(=O)[C@H](C)C[C@H](C)/C=C/C=C/C=C/1C [RAD001, Everolimus] |  |  |  | 79 | lack of mTORC1-regulated phosphorylation | without influencing overall mouse weight | significantly reduced tumor volumes | without influencing overall mouse weight | significantly reduced tumor volumes | 0.75% and 0.75 ± 0.36% | No significant difference | 10.6 ± 6.4% | 61% and 61 ± 8.6% | 1.5 | 24.3 | only moderately and did not reach statistical significance | internalization ratio [RAD001/control] (AR42J cells [8]): 1.7; [177Lu]Lu-PP-F11N internalization in treated cells (AR42J cells [8]; 100 nM RAD001): 10%; total protein level compared to control (A431 cells): 79%; total protein level compared to control (AR42J cells [9]): 84%; S6 phosphorylation (WB) ([4]; 20 h incubation with 50, 100 and 200 nM RAD001, A431/CCKBR): inhibited S6 phosphorylation; increase of CCKBR level (CCKBR): 2.2 fold; effect of RAD001 on β-arrestin-1 recruitment [10]: no difference; effect of RAD001 on β-arrestin-2 recruitment [11]: no difference; cell number by Hoechst fluorescence (A431/CCKBR cells [12]): significantly reduced cell number; [177Lu]Lu-PP-F11N uptake in tumors of matching sizes ([7]; tumors ranging from 50-150 or 50-180 mg): statistically significant increase
CO[C@H]1C[C@@H]2CC[C@@H](C)[C@@](O)(O2)C(=O)C(=O)N2CCCC[C@H]2C(=O)O[C@H]([C@H](C)C[C@@H]2CC[C@@H](O)[C@H](OC)C2)CC(=O)[C@H](C)/C=C(\C)[C@@H](O)[C@@H](OC)C(=O)[C@H](C)C[C@H](C)/C=C/C=C/C=C/1C [Rapamycin] | 1.24 | 0.91 | 0.94 |  |  |  |  |  |  |  |  |  |  |  |  |  | decrease of total protein level (A431/CCKBR cells [3]; 10 µM, lysates of validation experiment): 26%
CCCC[C@H](NC(=O)[C@H](Cc1c[nH]c2ccccc12)NC(=O)CNC(=O)[C@H](Cc1ccc(O)cc1)NC(=O)[C@H](C)NC(=O)[C@@H](CCC(=O)O)NC(=O)[C@@H](CCC(=O)O)NC(=O)[C@@H](CCC(=O)O)NC(=O)[C@@H](CCC(=O)O)NC(=O)[C@@H](CCC(=O)O)NC(=O)[C@@H](CCC(=O)O)NC(=O)CN1CCN(CC(=O)O)CCN(CC(=O)O)CCN(CC(=O)O)CC1)C(=O)N[C@@H](CC(=O)O)C(=O)N[C@@H](Cc1ccccc1)C(N)=O [[^177Lu]Lu-PP-F11N, [^177Lu]Lu-DOTA-(DGlu)6-Ala-Tyr-Gly-Trp-Nle-Asp-Phe-NH2, metal not drawn] |  |  |  |  |  |  |  |  |  |  |  |  |  |  |  |  | median tumor-to-kidney dose ratio [13]: 11.6; tumor-to-stomach dose ratio [13]: 3.34; tissue uptake at 4 h (in vivo; Blood): 0.043 %ID/g; tissue uptake at 4 h (in vivo; Bone): 0.37 %ID/g; tissue uptake at 4 h (in vivo; Brain): 0.03 %ID/g; tissue uptake at 4 h (in vivo; Intestines): 0.23 %ID/g; tissue uptake at 4 h (in vivo; Kidney): 3.07 %ID/g; tissue uptake at 4 h (in vivo; Liver): 0.17 %ID/g; tissue uptake at 4 h (in vivo; Lung): 0.08 %ID/g; tissue uptake at 4 h (in vivo; Pancreas): 0.12 %ID/g; tissue uptake at 4 h (in vivo; Spleen): 0.1 %ID/g; tissue uptake at 4 h (in vivo; Stomach): 1.01 %ID/g; tissue uptake at 4 h (in vivo; Tumor, n=6): 10.9 %ID/g

— publication PMC7532663, “Pharmacological inhibition of mTORC1 increases CCKBR-specific tumor uptake of radiolabeled minigastrin analogue [^177Lu]Lu-PP-F11N” (Theranostics, 2020)
